Measurements as given in patent US20140314844A1, “ORAL COMPLEX FORMULATION COMPRISING OMEGA-3 FATTY ACID AND HMG-COA REDUCTASE INHIBITOR WITH IMPROVED STABILITY” (HANMI PHARM. CO., LTD, priority 2011, published 2014).

Test: Suitability test between capsule ingredients and rosuvastatin calcium (heating, HPLC of related material RRT 0.72)
Type: physicochemical
Conditions: rosuvastatin 50 mg mixed with 100 mg capsule ingredient, heated at 100° C. for 2 hours, FIG. 1
Description: In order to evaluate interaction between the ingredients of a soft or hard capsule and statins, the following test was performed.
Specifically, gelatin (grade: 165 bloom, Geltech, Korea) which is a main ingredient of capsule; glycerol, propylene glycol and polyethylene glycol (PEG400), which are often used as a plasticizer; and sorbitol sorbitan solution (ROQUETTE, France, NF grade, containing solid content of 27.5 wt % of sorbitan and 34.4 wt % of sorbitol) were examined to evaluate the interaction with rosuvastatin calcium. In accordance with the ingredients described in Table 1, all ingredients were mixed, heated at 100° C. for 2 hours, and then evaluated by HPLC analysis.
HPLC analysis was performed using a stainless steel column of approximately 250 mm length, packed with 5 μm C18 or a similar column (Inertsil-ODS2, GL sciences) with a mobile phase of water:acetonitrile:1%(v/v) trifluoroacetic acid solution (62:37:1 (v/v)) at flow rate of 0.75 mL/min. The peak of related material as compared to the major peak of rosuvastatin, was analyzed quantitatively.

CC(C)c1nc(N(C)S(C)(=O)=O)nc(-c2ccc(F)cc2)c1/C=C/[C@@H](O)C[C@@H](O)CC(=O)[O-].CC(C)c1nc(N(C)S(C)(=O)=O)nc(-c2ccc(F)cc2)c1/C=C/[C@@H](O)C[C@@H](O)CC(=O)[O-].[Ca+2] [Ref. Ex. 1, rosuvastatin calcium]
production of related material RRT 0.72: excluding
